The values that follow come from PMC10826971, “Evaluating protein cross-linking as a therapeutic strategy to stabilize SOD1 variants in a mouse model of familial ALS” (PLOS Biology, 2024).

One experiment deals with transthyretin. The following applies: only approved drug with a kinetic stabilizing mechanism; cited from earlier work.
The target in the next experiment is SOD1 (Homo sapiens, UniProt P00441). Format: binding. On the procedure:
A computational search was performed in PubChem to identify all compounds containing a cyclic disulfide motif. […] Of these, 69 compounds cross-linked SOD1 with a wide array of reaction rates. Only 2 compounds could cross-link 100% of SOD1 during the assay, including one 5-membered cyclic disulfide (4-Amino-1,2-Dithiolane-4-Carboxylic Acid) and one 6-membered cyclic thiosulfinate (1,2-dithiane 1-oxide).

Sequence of SOD1 (P00441 2-154 limits assumed): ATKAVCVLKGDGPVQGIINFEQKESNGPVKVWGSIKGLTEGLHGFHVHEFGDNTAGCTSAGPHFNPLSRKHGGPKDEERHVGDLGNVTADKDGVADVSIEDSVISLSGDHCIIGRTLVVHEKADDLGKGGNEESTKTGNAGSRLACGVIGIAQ

Consider `O=C(O)c1ccc2nc(-c3cc(Cl)cc(Cl)c3)oc2c1` [tafamidis], for which the “increase in thermal stability” value in the experiment with transthyretin is 6 °C. `NC1(C(=O)O)CSSC1` [4-Amino-1,2-Dithiolane-4-Carboxylic Acid]: the “SOD1 cross-linked during the assay” value on SOD1 came to 100%.
